This note sets out measurements from patent US9029389B2 (Institut Pasteur Korea, priority 2011, dated 2015).

One series deals with T1, Human 5-lipoxygenase (Homo sapiens, UniProt P09917).
T1 construct: purchased Cayman 60402; host or cells: insect cells
T1 sequence (P09917 1-674): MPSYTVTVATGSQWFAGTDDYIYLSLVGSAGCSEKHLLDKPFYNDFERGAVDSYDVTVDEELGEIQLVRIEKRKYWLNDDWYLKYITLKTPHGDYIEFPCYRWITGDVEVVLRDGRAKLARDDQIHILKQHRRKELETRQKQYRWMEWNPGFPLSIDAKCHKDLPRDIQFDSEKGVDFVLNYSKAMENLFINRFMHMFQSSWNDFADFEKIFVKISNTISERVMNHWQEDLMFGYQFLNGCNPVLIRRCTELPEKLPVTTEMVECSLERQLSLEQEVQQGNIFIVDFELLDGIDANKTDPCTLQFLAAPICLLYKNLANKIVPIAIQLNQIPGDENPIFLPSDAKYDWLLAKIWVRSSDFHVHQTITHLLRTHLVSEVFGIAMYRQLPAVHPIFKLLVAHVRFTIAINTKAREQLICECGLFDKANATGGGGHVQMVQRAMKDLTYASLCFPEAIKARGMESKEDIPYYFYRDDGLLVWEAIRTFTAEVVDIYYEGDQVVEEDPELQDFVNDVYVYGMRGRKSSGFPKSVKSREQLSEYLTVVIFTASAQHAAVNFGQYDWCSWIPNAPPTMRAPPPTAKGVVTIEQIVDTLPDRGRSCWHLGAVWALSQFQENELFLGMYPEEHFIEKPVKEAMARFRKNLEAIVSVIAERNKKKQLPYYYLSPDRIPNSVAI
In words: Activity of compounds against 5-LO enzyme (LTB4 measurement and/or fluorescence method). It counts as biochemical. Conditions: for inhibition at 10 µM: 5-LO, single concentration of 10 uM in duplicate; for pIC50: 6 or 11 point dose response in duplicate. An outline of the steps: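 Insect-cell human 5-LO preincubated 15 min at RT with compound (pH 7.4, 2 mM CaCl2, 0.1 mM ATP, 1% DMSO), then 3 uM arachidonic acid for 5 min at 37 °C; LTB4 quantified by EIA and/or LC/MS/MS. Alternatively, fluorescence of 5-HpETE via H2DCFDA, 100 uM ATP, 3 uM arachidonic acid, 5 min, RT; single 10 uM screen then 6- or 11-point IC50.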

Structures are written as SMILES. pIC50: −log10 of the molar value. Some results are limits rather than exact numbers.

For `CCc1nc2c(F)cccn2c1C(=O)NCc1ccc(N2CCN(c3ccc(F)cc3)CC2)cc1` [compound 223, 2-Ethyl-8-fluoro-N-(4-(4-(4-fluorophenyl)piperazin-1-yl)benzyl)imidazo[1,2-a]pyridine-3-carboxamide], the melting point (commonly the temperature of the solid-liquid transition) was 204.1 °C. Moreover, at Human 5-lipoxygenase, the inhibition (usually how much of the control response was suppressed) at 10 µM was above 69% and the pIC50 (as a rule, the negative decadic logarithm of the IC50, by convention in mol/L) was 4.70 to 6.00.

Regarding `CCc1nc2c(F)cccn2c1C(=O)NCc1ccc(Oc2ccc(OC(F)(F)F)cc2)cc1` [compound 224, 2-Ethyl-8-fluoro-N-(4-(4-(trifluoromethoxy)phenoxy)benzyl)imidazo[1,2-a]pyridine-3-carboxamide], the melting point amounted to 105.6 °C. At Human 5-lipoxygenase, this molecule gave an inhibition at 10 µM above 69% and a pIC50 above 6.00.

`CCc1nc2ccc(F)cn2c1C(=O)NCc1ccc(Oc2ccc(OC(F)(F)F)cc2)cc1` [compound 225, 2-Ethyl-6-fluoro-N-(4-(4-(trifluoromethoxy)phenoxy)benzyl)imidazo[1,2-a]pyridine-3-carboxamide] yielded a melting point of 133.4 °C. On Human 5-lipoxygenase, this molecule showed an inhibition at 10 µM above 69% and a pIC50 above 6.00.

Regarding `CCc1nc2ccc(Br)cn2c1C(=O)NCc1ccc(Oc2ccc(OC(F)(F)F)cc2)cc1` [compound 226, 6-Bromo-2-ethyl-N-(4-(4-(trifluoromethoxy)phenoxy)benzyl)imidazo[1,2-a]pyridine-3-carboxamide], the melting point is 152.9 °C. The inhibition at 10 µM against Human 5-lipoxygenase is below 40%.

The molecule `CCc1nc2ccccn2c1C(=O)NCc1ccc(N2CCN(c3ccc(F)cc3)CC2)cc1` [compound 227, 2-Ethyl-N-(4-(4-(4-fluorophenyl)piperazin-1-yl)benzyl)imidazo[1,2-a]pyridine-3-carboxamide] registered a melting point of 189.2 °C. Also, on Human 5-lipoxygenase, the inhibition at 10 µM was above 69% and the pIC50 is 4.70 to 6.00.

`CCc1nc2ccc(F)cn2c1C(=O)NCc1ccc(N2CCN(c3ccc(F)cc3)CC2)cc1` [compound 228, 2-Ethyl-6-fluoro-N-(4-(4-(4-fluorophenyl)piperazin-1-yl)benzyl)imidazo[1,2-a]pyridine-3-carboxamide] showed a melting point of 200.9 °C. On Human 5-lipoxygenase, this molecule gave an inhibition at 10 µM above 69% and a pIC50 of 4.70 to 6.00.

`CCc1nc2ccc(Br)cn2c1C(=O)NCc1ccc(N2CCN(c3ccc(F)cc3)CC2)cc1` [compound 229, 6-Bromo-2-ethyl-N-(4-(4-(4-fluorophenyl)piperazin-1-yl)benzyl)imidazo[1,2-a]pyridine-3-carboxamide] had a melting point of 218.1 °C. This molecule also returned an inhibition at 10 µM on Human 5-lipoxygenase below 40%.

For the molecule `CCc1nc2ccc(Cl)cn2c1C(=O)NCc1ccc(N2CCC(CO)CC2)cc1` [compound 230, 6-Chloro-2-ethyl-N-(4-(4-(hydroxymethyl)piperidin-1-yl)benzyl)imidazo[1,2-a]pyridine-3-carboxamide], the melting point was 161.1 °C. At Human 5-lipoxygenase, this molecule returned an inhibition at 10 µM below 40%.

With `CCc1nc2ccc(C)cn2c1C(=O)NCc1ccc(N2CCN(c3ccc(F)cc3)CC2)cc1` [compound 231, 2-Ethyl-N-(4-(4-(4-fluorophenyl)piperazin-1-yl)benzyl)-6-methylimidazo[1,2-a]pyridine-3-carboxamide], the melting point amounted to 187.6 °C. At Human 5-lipoxygenase, this molecule gave an inhibition at 10 µM above 69% and a pIC50 of 4.70 to 6.00.

As to `CCc1nc2ccc(Cl)cn2c1C(=O)NCc1ccc(N2CCC(C(F)(F)F)CC2)cc1` [compound 233, 6-Chloro-2-ethyl-N-(4-(4-(trifluoromethyl)piperidin-1-yl)benzyl)imidazo[1,2-a]pyridine-3-carboxamide], the melting point was 197.9 °C. The inhibition at 10 µM on Human 5-lipoxygenase lay within 40 to 69%.

In the case of `CCc1nc2cc(Cl)ccn2c1C(=O)NCc1ccc(N2CCC(C(F)(F)F)CC2)cc1` [compound 234, 7-Chloro-2-ethyl-N-(4-(4-(trifluoromethyl)piperidin-1-yl)benzyl)imidazo[1,2-a]pyridine-3-carboxamide], the melting point was found to be 209.4 °C. At Human 5-lipoxygenase, this molecule registered an inhibition at 10 µM below 40%.
